Measurements taken from PMC7654512 (Bioorganic & medicinal chemistry letters, 2019).
Each block holds one compound with its values, some of them ahead of it.

Columns and labels:
[1] = Hydrolytic stability of L-Dopa phosphoramidate prodrugs; format: physicochemical; conditions: for hydrolytic stability relative to 1b (in words): 37 °C, 31P NMR, pH not stated at the place
[2] = L-Dopa alone, systemic circulation; cited from earlier work

Structure (SMILES): CC(=O)N[C@H](C(=O)[O-])[C@@H](C)OP(=O)([O-])N[C@@H](Cc1ccc(O)c(O)c1)C(=O)[O-].[K+].[K+].[K+] [1a]
- hydrolytic stability relative to 1b (in words) [1]: considerably less stable than the serine analog 1b

Structure (SMILES): N[C@@H](Cc1ccc(O)c(O)c1)C(=O)O [L-Dopa, Levodopa]
- circulating half-life [2]: approximately 1 h

Other lines, results leading:

- half-life ([1]; buffer, pH 7.4, half-life (t1/2) of hydrolysis, pH 7.4, 37 °C, 31P NMR over 16 h, internal standard TPPO, first-order kinetics): ~600 min
Structure (SMILES): CC(=O)N[C@@H](COP(=O)([O-])N[C@@H](Cc1ccc(O)c(O)c1)C(=O)[O-])C(=O)[O-].[K+].[K+].[K+] [1b]

- hydrolytic stability relative to 1b (in words) [1]: unstable compared to 1b
Structure (SMILES): O=C([O-])CCOP(=O)([O-])N[C@@H](Cc1ccc(O)c(O)c1)C(=O)[O-].[K+].[K+].[K+] [1c]

- hydrolytic stability (in words) ([1]; pH 7.4, 37 °C, 31P NMR over 16 h): stable
Structure (SMILES): CC(=O)NCCOP(=O)([O-])N[C@@H](Cc1ccc(O)c(O)c1)C(=O)[O-].[K+].[K+] [1e]
